# In ChEMBL document CHEMBL1212772:
# How the values were obtained:
# [1] = target: Beta-lactamase OXA-10 (Pseudomonas aeruginosa) (UniProt P14489); experiment: Activity of Pseudomonas aeruginosa OXA-10 relative to Cephaloridine
# [2] = target: Beta-lactamase OXA-23 (Acinetobacter baumannii) (UniProt Q9L4P2); experiment: Activity of Acinetobacter baumannii OXA-23 relative to Cephaloridine
# [3] = target: Beta-lactamase VIM-2 (Pseudomonas aeruginosa) (UniProt Q9K2N0); experiment: Activity of Pseudomonas aeruginosa VIM-2 relative to Cephaloridine
# Klebsiella oxytoca [4] = experiment: Activity of Klebsiella oxytoca Beta-lactamase K1
# [5] = target: T1, Beta-lactamase SHV-1 (Klebsiella pneumoniae) (UniProt P0AD64); experiment: Activity of Klebsiella pneumoniae SHV-1 relative to Cephaloridine
# T1 sequence (whole entry): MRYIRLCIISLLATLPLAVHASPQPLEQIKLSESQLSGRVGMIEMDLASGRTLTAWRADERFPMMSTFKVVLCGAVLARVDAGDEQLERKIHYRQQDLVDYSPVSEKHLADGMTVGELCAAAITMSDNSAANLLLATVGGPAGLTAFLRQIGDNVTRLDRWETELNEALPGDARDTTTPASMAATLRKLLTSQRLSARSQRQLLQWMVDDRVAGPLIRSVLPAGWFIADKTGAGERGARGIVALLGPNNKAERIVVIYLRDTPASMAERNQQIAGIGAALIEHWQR
# [6] = target: Beta-lactamase TEM (Escherichia coli) (UniProt P62593); experiment: Activity of Escherichia coli TEM-1 relative to Cephaloridine
# [7] = target: Beta-lactamase OXA-23 (Acinetobacter baumannii) (UniProt Q9L4P2); experiment: Kcat/Km ratio of Acinetobacter baumannii OXA-23 relative to Cephaloridine
# [8] = target: T2, Carbapenem-hydrolyzing beta-lactamase SME-3 (Serratia marcescens) (UniProt Q6PRG8); experiment: Kcat/Km ratio of Serratia marcescens SME-3 relative to Cephaloridine
# T2 sequence (whole entry): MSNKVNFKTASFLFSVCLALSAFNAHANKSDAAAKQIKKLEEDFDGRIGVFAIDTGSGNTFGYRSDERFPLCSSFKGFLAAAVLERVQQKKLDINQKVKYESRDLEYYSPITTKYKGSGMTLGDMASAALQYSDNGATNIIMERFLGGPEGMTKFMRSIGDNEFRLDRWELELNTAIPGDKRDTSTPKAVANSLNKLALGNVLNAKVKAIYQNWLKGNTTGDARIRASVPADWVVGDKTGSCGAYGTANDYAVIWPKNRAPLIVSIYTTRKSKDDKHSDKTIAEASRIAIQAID
# [9] = target: T3, Beta-lactamase IMP-1 (Pseudomonas aeruginosa) (UniProt Q8G9Q0); experiment: Activity of Pseudomonas aeruginosa IMP-1 relative to Cephaloridine
# T3 sequence (whole entry): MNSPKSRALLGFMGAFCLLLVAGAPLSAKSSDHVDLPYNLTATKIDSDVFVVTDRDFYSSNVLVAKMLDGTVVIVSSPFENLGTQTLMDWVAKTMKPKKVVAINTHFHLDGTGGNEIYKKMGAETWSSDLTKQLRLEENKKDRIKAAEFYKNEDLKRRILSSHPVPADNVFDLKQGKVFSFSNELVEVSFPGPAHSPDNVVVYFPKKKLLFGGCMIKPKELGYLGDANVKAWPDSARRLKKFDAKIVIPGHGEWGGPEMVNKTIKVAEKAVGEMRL
# Klebsiella oxytoca [10] = experiment: Kcat/Km ratio of Klebsiella oxytoca Beta-lactamase K1 relative to Cephaloridine
# [11] = target: Beta-lactamase (Escherichia coli) (UniProt Q53TY8); experiment: Activity of Escherichia coli CMY-2 relative to Cephaloridine
# [12] = target: Beta-lactamase TEM (Escherichia coli) (UniProt P62593); experiment: Kcat/Km ratio of Escherichia coli TEM-1 relative to Cephaloridine
# [13] = target: Beta-lactamase VIM-2 (Pseudomonas aeruginosa) (UniProt Q9K2N0); experiment: Kcat/Km ratio of Pseudomonas aeruginosa VIM-2 relative to Cephaloridine
# [14] = target: Carbapenem-hydrolyzing beta-lactamase KPC (Klebsiella pneumoniae) (UniProt Q9F663); experiment: Kcat/Km ratio of Klebsiella pneumoniae KPC-2 relative to Cephaloridine
# [15] = target: Beta-lactamase (Escherichia coli) (UniProt Q53TY8); experiment: Kcat/Km ratio of Escherichia coli CMY-2 relative to Cephaloridine
# [16] = target: Beta-lactamase (Pseudomonas aeruginosa (strain ATCC 15692 / PAO1 / 1C / PRS 101 / LMG12228)) (UniProt P24735); experiment: Kcat/Km ratio of Pseudomonas aeruginosa AmpC relative to Cephaloridine
# [17] = target: Beta-lactamase CTX-M (Escherichia coli) (UniProt Q9EXV5); experiment: Kcat/Km ratio of Escherichia coli CTX-M-15 relative to Cephaloridine
# [18] = target: T3, Beta-lactamase IMP-1 (Pseudomonas aeruginosa); experiment: Kcat/Km ratio of Pseudomonas aeruginosa IMP-1 relative to Cephaloridine
# Escherichia coli [19] = experiment: Activity of Klebsiella pneumoniae Beta-lactamase TEM-26 relative to Cephaloridine
# [20] = target: Beta-lactamase CTX-M (Escherichia coli) (UniProt Q9EXV5); experiment: Activity of Escherichia coli CTX-M-15 relative to Cephaloridine
# [21] = target: Beta-lactamase (Pseudomonas aeruginosa (strain ATCC 15692 / PAO1 / 1C / PRS 101 / LMG12228)) (UniProt P24735); experiment: Activity of Pseudomonas aeruginosa AmpC relative to Cephaloridine
# [22] = target: Beta-lactamase (Enterobacter cloacae) (UniProt P05364); experiment: Kcat/Km ratio of Enterobacter cloacae AmpC relative to Cephaloridine
# [23] = target: T2, Carbapenem-hydrolyzing beta-lactamase SME-3 (Serratia marcescens); experiment: Activity of Serratia marcescens SME-3 relative to Cephaloridine
# Escherichia coli [24] = experiment: Kcat/Km ratio of Klebsiella pneumoniae Beta-lactamase TEM-26
# Escherichia coli [25] = experiment: Kcat/Km ratio of Klebsiella pneumoniae Beta-lactamase TEM-26 relative to Cephaloridine
# Klebsiella oxytoca [26] = experiment: Kcat/Km ratio of Klebsiella oxytoca Beta-lactamase K1
# [27] = target: T1, Beta-lactamase SHV-1 (Klebsiella pneumoniae); experiment: Kcat/Km ratio of Klebsiella pneumoniae SHV-1 relative to Cephaloridine
# Klebsiella pneumoniae = experiment: Activity of Klebsiella pneumoniae Beta-lactamase TEM-26
# [28] = target: Beta-lactamase (Enterobacter cloacae) (UniProt P05364); experiment: Activity of Enterobacter cloacae AmpC relative to Cephaloridine
# [29] = target: Beta-lactamase OXA-10 (Pseudomonas aeruginosa) (UniProt P14489); experiment: Kcat/Km ratio of Pseudomonas aeruginosa OXA-10 relative to Cephaloridine
# Klebsiella oxytoca [30] = experiment: Activity of Klebsiella oxytoca Beta-lactamase K1 relative to Cephaloridine
# [31] = target: Carbapenem-hydrolyzing beta-lactamase KPC (Klebsiella pneumoniae) (UniProt Q9F663); experiment: Activity of Klebsiella pneumoniae KPC-2 relative to Cephaloridine
# [32] = system: C[C@@H](O)[C@H]1C(=O)N2C(C(=O)O)=C(S[C@@H]3CN[C@H](CNS(N)(=O)=O)C3)[C@H](C)[C@H]12; experiment: Kcat/Km ratio of Pseudomonas aeruginosa VIM-2
# [33] = system: C[C@@H](O)[C@H]1C(=O)N2C(C(=O)O)=C(S[C@@H]3CN[C@H](CNS(N)(=O)=O)C3)[C@H](C)[C@H]12; experiment: Activity of Pseudomonas aeruginosa VIM-2
Molecule,Activity [1] [%],Activity [2] [%],Km (Klebsiella oxytoca [4]) [µM],kcat (Klebsiella oxytoca [4]) [s⁻¹],Activity [5] [%],Activity [7] [%],Activity [9] [%],Activity (Klebsiella oxytoca [10]) [%],Activity [11] [%],Activity [14] [%],Activity [15] [%],Activity [16] [%],Activity [18] [%],Activity (Escherichia coli [19]) [%],Activity [21] [%],kcat/Km (Escherichia coli [24]) [M⁻¹ s⁻¹],Activity (Escherichia coli [25]) [%],kcat/Km (Klebsiella oxytoca [26]) [M⁻¹ s⁻¹],Km (Klebsiella pneumoniae) [µM],kcat (Klebsiella pneumoniae) [s⁻¹],other results
C[C@@H](O)[C@H]1C(=O)N2C(C(=O)O)=C(S[C@@H]3CN[C@H](CNS(N)(=O)=O)C3)[C@H](C)[C@H]12,< 0.046,0.044,45,0.0068,0.00073,31,41,0.0033,1e-05,45,0.67,< 1.2,28,0.001,< 0.0063,46,0.0082,150,8,0.00037,Activity [3]: 2%; Activity [6]: 2.1e-05%; Activity [8]: 10%; Activity [12]: 0.0022%; Activity [13]: 34%; Activity [17]: 0.0051%; Activity [20]: 0.00095%; Activity [22]: 0.00059%; Activity [23]: 0.21%; Activity [27]: 0.027%; Activity [28]: 1.7e-05%
CC1(C)S[C@@H]2[C@H](NC(=O)Cc3ccccc3)C(=O)N2[C@H]1C(=O)O,540,120,40,800,,12000,520,440,3.1,260,420,1,19,210,46,1.5e+07,2700,2e+07,5,76,Activity [29]: 14000%; Activity (Klebsiella oxytoca [30]): 160%; Activity [31]: 15%
O=C(Cc1cccs1)N[C@@H]1C(=O)N2C(C(=O)O)=C(/C=C/c3ccc([N+](=O)[O-])cc3[N+](=O)[O-])CS[C@H]12,,,,,,,,,240,,1800,,,,160,,,,,,
O=C(Cc1cccs1)N[C@@H]1C(=O)N2C(C(=O)[O-])=C(C[n+]3ccccc3)CS[C@H]12,,,110,490,,,,,,,,,,,,560000,,4.5e+06,66,37,
C[C@@H](O)[C@H]1C(=O)N2C(C(=O)O)=C(SCCNC=N)C[C@H]12,< 0.088,0.2,51,0.091,0.013,14200,70,0.04,0.0044,45,,< 7,45,0.0065,< 0.031,170,0.03,1800,14,0.0024,Activity [6]: 0.00097%; Activity [8]: 83%; Activity [12]: 0.072%; Activity [17]: 0.029%; Activity [20]: 0.09%; Activity [22]: 0.0066%; Activity [23]: 31%; Activity [27]: 0.092%; Activity (Klebsiella oxytoca [30]): 0.019%; Activity [28]: 0.00048%; Activity [31]: 7.9%
Beta-lactamase VIM-2 (Pseudomonas aeruginosa) (from UniProt Q9K2N0),,,,,,,,,,,,,,,,,,,,,kcat/Km [32]: 29000 M⁻¹ s⁻¹; Km [33]: 83 µM; kcat [33]: 2.4 s⁻¹
CC(C)(O/N=C(\C(=O)N[C@@H]1C(=O)N2C(C(=O)[O-])=C(C[n+]3ccccc3)CS[C@H]12)c1csc(N)n1)C(=O)O,< 0.059,< 0.00093,140,0.013,0.0024,,14,0.0021,,0.22,0.033,< 0.48,5.7,260,,730000,130,93,130,95,Activity [27]: 0.00077%; Activity (Klebsiella oxytoca [30]): 0.0027%; Activity [31]: 0.097%
C[C@@H](O)[C@H]1C(=O)N2C(C(=O)O)=C(S[C@@H]3CN[C@H](C(=O)N(C)C)C3)[C@H](C)[C@H]12,< 0.031,0.029,90,0.0096,0.00041,14.9,9.6,0.0024,1.1e-05,37,0.058,< 1.6,31,0.0011,< 0.0063,44,0.0079,110,8.8,0.00039,Activity [6]: 2.3e-05%; Activity [8]: 18%; Activity [12]: 0.00083%; Activity [17]: 0.0078%; Activity [20]: 0.0022%; Activity [22]: 0.00042%; Activity [23]: 0.27%; Activity [27]: 0.015%; Activity (Klebsiella oxytoca [30]): 0.002%; Activity [28]: 1.2e-05%; Activity [31]: 0.92%
